Data: ChEMBL document CHEMBL1133129, “A focused compound library of novel N-(7-indolyl)benzenesulfonamides for the discovery of potent cell cycle inhibitors” (Bioorg Med Chem Lett, 2000)
Values after ≈ are worked out from the molar mass of the structure shown. Active and inactive are the calls of the source. No cut-off for these calls is given here.

Key:
MC-38 [1] = assay: In vitro antiproliferative activity measured against colon 38 cancer cell line using MTT colorimetric assay; format: functional, cell-based; conditions: Mus musculus
P388 [2] = assay: In vitro antiproliferative activity measured against P388 cancer cell line using MTT colorimetric assay; format: functional, cell-based; conditions: Mus musculus
P388 [3] = assay: Effect on the cell cycle progression using P388 cells at 4.0 ug/mL for 24 hr; No effect; format: functional, cell-based; conditions: Mus musculus
KB [4] = assay: In vitro antiproliferative activity measured against KB cancer cell line using MTT colorimetric assay; format: functional, cell-based; conditions: Homo sapiens
P388 [5] = assay: Effect on the cell cycle progression using P388 cells at 4.0 ug/mL for 24 hr; G2/M arrest & 4C-8C drug treated cells underwent an extra DNA replication without the completion of mitosis; format: functional, cell-based; conditions: Mus musculus
MC-38 [6] = assay: In vitro antiproliferative activity (4 ug/mL) was measured against colon 38 cancer cell line using MTT colorimetric assay; format: functional, cell-based; conditions: Mus musculus
KB [7] = assay: In vitro antiproliferative activity (4 ug/mL) was measured against KB cancer cell line using MTT colorimetric assay; format: functional, cell-based; conditions: Homo sapiens
P388 [8] = assay: Effect on the cell cycle progression using P388 cells at 4.0 ug/mL for 24 hr; G2/M arrest; format: functional, cell-based; conditions: Mus musculus
Tubulin (Bos taurus) [9] = target: T1, Tubulin (Bos taurus) (UniProt Q6B856+Q862L2+Q862F3); assay: Compound was tested against bovine brain tubulin polymerization; active; format: functional
P388 [10] = assay: In vitro antiproliferative activity was measured against P388 cancer cell line using MTT colorimetric assay; conditions: Mus musculus
P388 [11] = assay: Effect on the cell cycle progression using P388 cells at 4.0 ug/mL for 24 hr; GI increase; format: functional, cell-based; conditions: Mus musculus
P388 [12] = assay: Effect on the cell cycle progression using P388 cells at 4.0 ug/mL for 24 hr; Effect:G2/M arrest & 4C-8C drug treated cells underwent an extra DNA replication without the completion of mitosis; format: functional, cell-based; conditions: Mus musculus
P388 [13] = assay: Concentration at which compound caused cellular accumulation in GI phase in P388 cells; format: functional, cell-based; conditions: Mus musculus
Bos taurus = species on record: Bos taurus; assay: Inhibitory activity against bovine microtubule assembly; format: functional
Tubulin (Bos taurus) [14] = target: T1, Tubulin (Bos taurus); assay: Compound was tested against bovine brain tubulin polymerization; format: functional
P388 [15] = assay: Effect on the cell cycle progression using P388 cells at 4.0 ug/mL for 24 hr; G2/M increase; format: functional, cell-based; conditions: Mus musculus

| Structure (SMILES) | IC50 (P388 [2]) | IC50 (KB [4]) | IC50 (MC-38 [1]) | Cell cycle analysis (P388 [11]) | other results |
| --- | --- | --- | --- | --- | --- |
| Nc1ccc(S(=O)(=O)Nc2cccc3cc(Cl)[nH]c23)cc1 | 2.2 µg/mL (≈ 6.84 µM) | 1.4 µg/mL (≈ 4.35 µM) | 2.9 µg/mL (≈ 9.01 µM) |  | Cell cycle analysis (P388 [5]): G2/M arrest |
| COc1ccc(S(=O)(=O)Nc2cccc3cc(Cl)[nH]c23)cc1 |  |  |  |  | IC50 (MC-38 [6]): 0.17 µg/mL (≈ 0.505 µM); IC50 (KB [7]): 0.12 µg/mL (≈ 0.356 µM); Cell cycle analysis (P388 [8]): G2/M arrest; Activity (Tubulin (Bos taurus) [9]): Active; IC50 (P388 [10]): 0.11 µg/mL (≈ 0.327 µM) |
| COc1ccc(S(=O)(=O)Nc2cccc3c(Cl)c[nH]c23)cc1 |  |  |  |  | Cell cycle analysis (P388 [5]): G2/M arrest; Activity (Tubulin (Bos taurus) [9]): Active |
| Nc1ccc(S(=O)(=O)Nc2cccc3cc[nH]c23)cc1 |  |  |  |  | Cell cycle analysis (P388 [3]): inactive |
| N#Cc1ccc(S(=O)(=O)Nc2ccc(Cl)c3c(Cl)c[nH]c23)cc1 | 0.59 µg/mL (≈ 1.61 µM) | 13 µg/mL (≈ 35.5 µM) | 0.12 µg/mL (≈ 0.328 µM) | GI increase |  |
| Cc1ccc(S(=O)(=O)Nc2cccc3cc(O)[nH]c23)cc1 |  |  |  |  | IC50 (MC-38 [6]): 0.17 µg/mL (≈ 0.562 µM); IC50 (KB [7]): 0.093 µg/mL (≈ 0.308 µM); Cell cycle analysis (P388 [8]): G2/M arrest; Activity (Tubulin (Bos taurus) [9]): Active; IC50 (P388 [10]): 0.14 µg/mL (≈ 0.463 µM) |
| COc1ccc(S(=O)(=O)Nc2cccc3cc[nH]c23)cc1 |  |  |  |  | Cell cycle analysis (P388 [12]): Effect |
| Nc1ccc(S(=O)(=O)Nc2cccc3cc(O)[nH]c23)cc1 | 1.2 µg/mL (≈ 3.96 µM) | 0.86 µg/mL (≈ 2.84 µM) | 1.8 µg/mL (≈ 5.93 µM) |  | Cell cycle analysis (P388 [5]): G2/M arrest |
| Nc1ccc(S(=O)(=O)Nc2cccc3c(Cl)c[nH]c23)cc1 |  |  |  | GI increase | Concentration (P388 [13]): 4 µg/mL; Concentration (Bos taurus): > 33.3 µg/mL |
| COc1ccc(S(=O)(=O)Nc2ccc(Cl)c3cc[nH]c23)cc1 | 1.1 µg/mL (≈ 3.27 µM) | 0.92 µg/mL (≈ 2.73 µM) | 0.65 µg/mL (≈ 1.93 µM) |  | Cell cycle analysis (P388 [12]): Effect |
| O=[N+]([O-])c1ccc(S(=O)(=O)Nc2cccc3cc(Cl)[nH]c23)cc1 | 21 µg/mL (≈ 59.7 µM) | 18 µg/mL (≈ 51.2 µM) | 19 µg/mL (≈ 54 µM) |  | Cell cycle analysis (P388 [3]): inactive |
| COc1ccc(S(=O)(=O)Nc2cccnc2Nc2ccc(O)cc2)cc1 |  |  |  |  | Cell cycle analysis (P388 [8]): G2/M arrest; Activity (Tubulin (Bos taurus) [14]): Active |
| Nc1ccc(S(=O)(=O)Nc2ccc(-c3ccccc3)c3c(Cl)c[nH]c23)cc1 | 19 µg/mL (≈ 47.8 µM) | 15 µg/mL (≈ 37.7 µM) | 19 µg/mL (≈ 47.8 µM) |  | Cell cycle analysis (P388 [3]): inactive |
| N#Cc1ccc(S(=O)(=O)Nc2cccc3c(Cl)c[nH]c23)cc1 |  |  |  | GI increase |  |
| Cc1ccc(NS(=O)(=O)c2ccc(N)cc2)c2[nH]cc(Cl)c12 | 0.37 µg/mL (≈ 1.1 µM) | 16 µg/mL (≈ 47.6 µM) | 0.1 µg/mL (≈ 0.298 µM) | GI increase |  |
| O=[N+]([O-])c1ccc(S(=O)(=O)Nc2cccc3c(Cl)c[nH]c23)cc1 | 2.3 µg/mL (≈ 6.54 µM) | 14 µg/mL (≈ 39.8 µM) | 0.34 µg/mL (≈ 0.967 µM) | GI increase |  |
| Nc1ccc(S(=O)(=O)Nc2ccc(Br)c3c(Cl)c[nH]c23)cc1 | 0.64 µg/mL (≈ 1.6 µM) | 13 µg/mL (≈ 32.4 µM) | 0.14 µg/mL (≈ 0.349 µM) | GI increase |  |
| O=S(=O)(Nc1cc(Cl)cc2cc[nH]c12)c1ccc(Cl)cc1 | 9.9 µg/mL (≈ 29 µM) | 9.1 µg/mL (≈ 26.7 µM) | 8.5 µg/mL (≈ 24.9 µM) |  | Cell cycle analysis (P388 [3]): inactive |
| O=S(=O)(Nc1cccc2cc[nH]c12)c1ccc(Cl)cc1 |  |  |  |  | Cell cycle analysis (P388 [3]): inactive |
| O=S(=O)(Nc1cccc2c(Cl)c[nH]c12)c1ccc(Cl)cc1 | 4.3 µg/mL (≈ 12.6 µM) | 8.8 µg/mL (≈ 25.8 µM) | 0.28 µg/mL (≈ 0.821 µM) | GI increase |  |
| O=S(=O)(Nc1cccc2cc(Cl)[nH]c12)c1ccc(Cl)cc1 |  |  |  |  | IC50 (MC-38 [6]): 10 µg/mL (≈ 29.3 µM); IC50 (KB [7]): 4 µg/mL (≈ 11.7 µM); Cell cycle analysis (P388 [15]): G2/M increase; Activity (Tubulin (Bos taurus) [9]): Active; IC50 (P388 [10]): 7.4 µg/mL (≈ 21.7 µM) |
| COc1ccc(S(=O)(=O)Nc2cc(Cl)cc3cc[nH]c23)cc1 | 0.27 µg/mL (≈ 0.802 µM) | 0.21 µg/mL (≈ 0.624 µM) | 0.64 µg/mL (≈ 1.9 µM) |  | Cell cycle analysis (P388 [8]): G2/M arrest |

Second part, led by results:

| IC50 (P388 [2]) | IC50 (KB [4]) | Structure (SMILES) | IC50 (MC-38 [1]) | Cell cycle analysis (P388 [11]) | other results |
| --- | --- | --- | --- | --- | --- |
| 13 µg/mL (≈ 37 µM) | 12 µg/mL (≈ 34.1 µM) | O=[N+]([O-])c1ccc(S(=O)(=O)Nc2cc(Cl)cc3cc[nH]c23)cc1 | 13 µg/mL (≈ 37 µM) |  | Cell cycle analysis (P388 [3]): inactive |
| > 100 µg/mL | > 100 µg/mL | O=[N+]([O-])c1ccc(S(=O)(=O)Nc2cccc3cc(O)[nH]c23)cc1 | 62 µg/mL (≈ 186 µM) |  | Cell cycle analysis (P388 [3]): inactive |
| 8.2 µg/mL (≈ 25.8 µM) | 15 µg/mL (≈ 47.3 µM) | O=[N+]([O-])c1ccc(S(=O)(=O)Nc2cccc3cc[nH]c23)cc1 | 7.2 µg/mL (≈ 22.7 µM) |  | Cell cycle analysis (P388 [3]): inactive |
| 0.49 µg/mL (≈ 1.38 µM) | 14 µg/mL (≈ 39.3 µM) | Nc1ccc(S(=O)(=O)Nc2ccc(Cl)c3c(Cl)c[nH]c23)cc1 | 0.1 µg/mL (≈ 0.281 µM) | GI increase |  |
| 0.51 µg/mL (≈ 1.5 µM) | 14 µg/mL (≈ 41.2 µM) | Nc1ccc(S(=O)(=O)Nc2ccc(F)c3c(Cl)c[nH]c23)cc1 | 0.11 µg/mL (≈ 0.324 µM) | GI increase |  |
| 5.5 µg/mL (≈ 15.6 µM) | 20 µg/mL (≈ 56.8 µM) | COc1ccc(NS(=O)(=O)c2ccc(N)cc2)c2[nH]cc(Cl)c12 | 2.3 µg/mL (≈ 6.54 µM) |  | Cell cycle analysis (P388 [3]): inactive |
| 4.6 µg/mL (≈ 13.5 µM) | 9.7 µg/mL (≈ 28.4 µM) | O=S(=O)(Nc1ccc(Cl)c2cc[nH]c12)c1ccc(Cl)cc1 | 0.66 µg/mL (≈ 1.93 µM) | GI increase |  |
| 0.14 µg/mL (≈ 0.436 µM) | 0.11 µg/mL (≈ 0.343 µM) | Cc1ccc(S(=O)(=O)Nc2cccc3cc(Cl)[nH]c23)cc1 | 0.18 µg/mL (≈ 0.561 µM) |  | Cell cycle analysis (P388 [8]): G2/M arrest |
| 3.3 µg/mL (≈ 9.38 µM) | 9.1 µg/mL (≈ 25.9 µM) | O=[N+]([O-])c1ccc(S(=O)(=O)Nc2ccc(Cl)c3cc[nH]c23)cc1 | 0.67 µg/mL (≈ 1.9 µM) | GI increase |  |
| 1.8 µg/mL (≈ 5.43 µM) | 15 µg/mL (≈ 45.2 µM) | N#Cc1ccc(S(=O)(=O)Nc2ccc(Cl)c3cc[nH]c23)cc1 | 0.22 µg/mL (≈ 0.663 µM) | GI increase |  |
| 0.11 µg/mL (≈ 0.346 µM) | 0.1 µg/mL (≈ 0.314 µM) | COc1ccc(S(=O)(=O)Nc2cccc3cc(O)[nH]c23)cc1 | 0.22 µg/mL (≈ 0.691 µM) |  | Cell cycle analysis (P388 [8]): G2/M arrest |
| 2.2 µg/mL (≈ 6.82 µM) | 1.1 µg/mL (≈ 3.41 µM) | O=S(=O)(Nc1cccc2cc(O)[nH]c12)c1ccc(Cl)cc1 | 4.5 µg/mL (≈ 13.9 µM) |  | Cell cycle analysis (P388 [5]): G2/M arrest |
